Assay results as given in patent US4902791A, “Nitrosourea derivatives, process for their preparation and medicaments containing them” (Sanofi S.A., priority 1983, dated 1990).

How the values were obtained:
Assay type in all cases: in vivo, mouse
[1] = test system: L1210 U.S.A.; experiment: antitumor activity on leukemia L1210 U.S.A., products of examples 33-39, I.P.
Method: The experiments were always carried out on female mice which were specific pathogen-free (S. P. F.),
either of the line DBA/2JIco
or of the line B6 D2 F1/JIco (first generation hybrids between the lines C57BL/6 and DBA/2).
On the day of the graft (by convention day 0=D0) an inoculum of 1×10^5 tumor cells in a volume of 0.2 ml is administered to each mouse by the intraperitoneal route (I.P.).
This inoculum is prepared by diluting ascites fluid taken from the peritoneum of a donor female mouse in NCTC 109 medium (Eurobio Laboratories, Paris, France), counting of the cells in a MALASSEZ cell under a microscope and adjustment of the concentration to 5×10^5cells […] by means of the same medium.
The tumor line is an American strain of the line L1210.
After the tumor graft, the mice are distributed at random in cages of 5 animals. Subsequently, these cages containing 5 mice are themselves distributed at random into a control group (control) and groups treated with the I.C. products.
(§1) The doses of the products of the invention used in the different experiments are expressed in milligrams per kilogram of body weight.
(§2) The products to be injected were dissolved in isotonic sodium chloride solution.
2 protocols for treatment were used in the different experiments:
either a single injection on D1, by the intraperitoneal (I.P.) or intravenous (I.V.) route,
(§3) or 3 I.P. injections on D1, D5, D9.
(§4) In each experiment the animals of the control group received 1 or more injections, depending on the experimental protocol used, by the same route (I.P. or I.V.) of the same volume (0.2 ml/20 g) of the vehicle without the active principle (isotonic sodium chloride solution).
(§5) the number and percentage of the total of the mice surviving to D60,
(§6) the T/C×100 for the treated groups.
(§7) T representing the mean survival time of the mice in the treated group,
(§8) C representing the mean survival time of the mice in the control group (controls).

[2] = test system: melanoma B16; experiment: antitumor activity on melanoma B16, products of examples 33-39, I.P.; conditions: B6 D2 F1, I.P. D1, D5, D9, 3×10 mg/kg
Method: The experiments are always carried out on SPF female mice, B6 D2 F1/JIco (first generation hybrids between the lines C57BL/6 and DBA/2).
On the day of the graft (day 0), an inoculum of 2×10^6 tumor cells in a volume of 0.5 ml is administered to each mouse by the intraperitoneal route (I.P.). This inoculum is prepared from a sub-cutaneous tumor excised from a donor female mouse. After excision the tumor is fragmented by means of a pair of scissors in the NCTC 109 medium. After filtration through sterile gauze in order to remove large cellular fragments, the homogeneous cell suspension obtained is counted by means of a MALASSEZ cell and diluted to the desired concentration (4×10^6tumor cells per ml) by dilution with the NCTC 109 medium.
This was performed in the manner described for the leukemia L1210 (see above).
as §1, §2, §3, §4, §5, §6, §7, §8

[3] = toxicological results, single I.P. dose, DL0 and DL50; conditions: mice; for LD50: mouse, in vivo, ip
Source text: DL0, DL50, single I.P. dose administered to the aforementioned strains of mice.

[4] = B6 D2 F1, I.P. D1, D5, D9, 3×1.25 mg/kg
[5] = B6 D2 F1, I.P. D1, D5, D9, 3×5 mg/kg
[6] = B6 D2 F1, I.P. D1, D5, D9, 3×10 mg/kg
[7] = DBA2, I.P. D1, D5, D9, 3×5 mg/kg

With CO[C@@H]1O[C@H](C)C[C@H](NC(=O)N(CCCl)N=O)[C@H]1O [IC. 85-1591, methyl 3-[3-(2-chloroethyl) 3-nitrosoureido] 3,4,6-trideoxyβ-D-xylo-hexopyranoside] the Number of survivors [1, 4] was 0/10, the T/C [1, 4] was 116 and the Number of survivors [1, 5] was 2/10. For the same compound, the T/C [1, 5] was 217, the “Number of survivors on D60” value [1, 6] was 8/10 and the T/C [1, 6] was 600. The “Number of survivors on D60” value ([1]; DBA2, I.P. D1, 1×20 mg/kg) was 7/10, the T/C ([1]; DBA2, I.P. D1, 1×20 mg/kg) was > 600 and the “Number of survivors on D60” value [1, 7] was 6/10. For the same compound, the T/C [1, 7] was > 600, the Number of survivors [2] was 3/10 and the T/C [2] was 194. The DL0 [3] was ≥ 20 mg/kg and the LD50 [3] was ~40 mg/kg.

For CO[C@H]1C[C@@H](NC(=O)N(CCCl)N=O)[C@H](O)[C@@H](CO)O1 [IC. 85-1673, methyl 3-[3-(2-chloroethyl) 3-nitrosoureido] 2,3-dideoxy β-D-arabino-hexopyranoside], the Number of survivors [1, 4] was 0/10, the T/C [1, 4] was 158 and the Number of survivors [1, 5] was 6/10. For the same compound, the T/C [1, 5] was 626, the Number of survivors [2] was 4/10 and the T/C [2] was 232. It also gave an LD50 [3] of ~20 mg/kg.
